According to patent US7087648B1, “Methods for modulating macrophage proliferation using polyamine analogs” (The Regents of the University of California, priority 1997, dated 2006):

Tests used:
[1] = test system: CD14^+ cells; assay: In vivo response of blood CD14 cells (PCNA, CD69 expression) to DEHOP in AIDS lymphoma patients; design: species or system human; conditions: FIG. 7
Procedure: Four patients who had failed standard chemotherapy for treatment of their AIDS related lymphoma (therapy included at least CHOP chemotherapy up to six cycles). were evaluated for response to DEHOP administration in vivo. Patients had blood drawn pre administration of drug for evaluation of macrophage activation. This blood was also evaluated for response to DEHOP in vitro. […] Blood was obtained at 1 week after completion of the first and second cycles of therapy. The blood specimens were evaluated for macrophage proliferation (proliferating cell nuclear antigen, PCNA expression), and activation (percentage CD69 expression). Response to therapy was evaluated by direct observation of tumor (3 patients) and persistence or resolution of symptoms (1 patient with GI lymphoma).
Because of intercurrent medical problems the patients were not allowed to receive a third cycle of DEHOP and both patients ultimately relapsed, FL on day 47 and LT on day 54. All of the macrophage activation parameters increased in both patients prior to their clinical objective tumor relapse.

[2] = test system: human brain tumor cell lines; conditions: cited from earlier work

## CCNCCCCNCCCCNCCCCNCC [DEHOP, 1,14-bis(ethylamino)-5,10-diazatetradecane]
[1]; after administration of drug
  PCNA/CD69 expression of CD14 cells: generally decreased
[1]; day 35 after initiation of study
  expression of all macrophage activation parameters: low to background level
[2]
  growth, survival, and cell cycle progression: directly affects growth, survival, and cell cycle progression
